Laboratory results taken from publication PMC10859961, “Ir(III) Half-Sandwich Photosensitizers with a π-Expansive Ligand for Efficient Anticancer Photodynamic Therapy” (Journal of Medicinal Chemistry, 2024).

Legend:
[1] = Photocatalytic NADH oxidation (UV-vis); assay type: biochemical; design: key: TON = ΔNADH concentration after 1 h / photocatalyst concentration; conditions: first hour, complex 2.5 μM, NADH 100 μM
Protocol: Fresh stock solutions of the complexes at 7.50 μM in H2O/MeOH mixture (97.5/2.5, v/v) and NADH at 300 μM in H2O/MeOH mixture (97.5/2.5, v/v) were prepared. In a quartz cell, 1 mL of complex solution, 1 mL of NADH solution, and 1 mL of solvent mixture were mixed to prepare a final solution with 2.50 μM complex and 100 μM NADH (complex/NADH rate = 1/40). The solutions were studied by recording UV–vis absorption spectra in dark conditions and under blue light irradiation (λexc = 470 nm, “Medusa” photoreactor) at ambient temperature and various time intervals for 8 h. In addition, a solution of NADH at 100 μM was studied under blue light irradiation to confirm its photostability. The photocatalytic rate of the photosensitizers was evaluated by monitoring its absorbance decrease at 340 nm, which correspond to NADH oxidation.
The turnover numbers (TONs) of complexes were calculated by measuring the absorption difference at 340 nm after 1 h of reaction. TON was calculated from the difference in NADH concentration after 1 h divided by the concentration of photocatalyst (eq 5), where b is the optical path length (1 cm). The concentration of NADH was obtained using the extinction coefficient ε340 = 5751 M^–1 cm^–1.[40],[148] [drawing 26] 5

[2] = 1O2 quantum yield determination with DPBF; conditions: acetonitrile; for 1O2 generation quantum yield (ϕΔ), DPBF: 470 nm blue light
Protocol: It was performed for complexes 1–8 in acetonitrile according to a relative procedure adapted from the literature[132]−[134] based on monitoring the oxidation of 1,3-diphenylisobenzofuran (DPBF, yellow) to 1,2-dibenzoylbenzene (colorless) photosensitized by the Ir(III) complexes. DPBF was used as an ^1O2 scavenger due to its fast reaction with this molecule. Fresh stock air-equilibrated solutions of photosensitizers (6.00 × 10^–6 M) and DPBF (1.50 × 10^–4 M) in acetonitrile were prepared. In a quartz cell, 1 mL of DPBF solution, 0.5 mL of complex solution, and 1.5 mL of acetonitrile were mixed to prepare a final solution with 5.00 × 10^–5 M DPBF and 1.00 × 10^–6 M complex. The final solutions were studied by recording UV–vis absorption spectra at room temperature in dark conditions (over a period of 6 min with time intervals of 2 min), under blue light irradiation (λexc = 470 nm, “Medusa” photoreactor) and under green light irradiation (λexc = 530 nm, “Medusa” photoreactor) for 5 s irradiation intervals during a total exposure period of 20 s. Absorption UV–vis spectra were recorded after every irradiation interval.
The consumption of DPBF probe was measured by monitoring its absorbance intensity decrease at 410 nm with irradiation time. ^1O2 generation quantum yield (ϕΔ) was calculated from eq 1 using Rose Bengal or [Ru(bpy)3]^2+ as reference for complexes with pbpz and pbpn ligands, respectively: [drawing 22] 1 where s and ref subscripts correspond to the complex and the reference, ϕΔ is the ^1O2 generation quantum yield (0.53 for Rose Bengal[135] and 0.56 for [Ru(bpy)3]Cl2[132] in degassed acetonitrile), S is the slope of the plots of the −ln(normalized absorbance) of DPBF at 410 nm vs the irradiation time, and F is the correction factor of absorption, which is given by F = 1–10^–O.D. (where O.D. is the optical density at 470 nm of solutions of complexes and references). The reproducibility of the results was confirmed by performing each experiment three times.
The stability of DPBF probe was studied in dark conditions and under light irradiation. In dark conditions and under green light irradiation the probe remains unaltered. However, under blue light irradiation, a photobleaching of DPBF was observed. Probe consumption was approximately 6.5% every 5 s. Therefore, a working interval of 20 s was chosen, where 75% of the probe remains stable. To calculate the ϕΔ, a correction factor was applied to the absorbance at 410 nm: a 6.5% of the previous value was added to each absorbance to counteract self-consumption of the probe (i.e., to the absorbance at 10 s, a 6.5% of the absorbance at 5 s was added).

calf thymus DNA (CT-DNA) = test: Competitive EtBr displacement assay; assay type: binding; conditions: CT-DNA saturated with EtBr; 1 h, room temperature; read-out: C50 (50% reduction of EtBr fluorescence)
Protocol: To investigate the capacity of the complexes to intercalate into DNA, the competitive ethidium displacement assay was carried out as previously described[149] with minor modifications. Stock solutions of 20 μM calf thymus DNA (CT-DNA) and 25 μM Ethidium bromide (EtBr) were prepared in saline TE (50 mM NaCl, 10 mM tris(hydroxymethyl) aminomethane–HCl, 0.1 mM ethylenediaminetetracetic acid (EDTA), pH 7.4). Serial dilutions of metal complexes were prepared at concentrations ranging from 20 to 400 μM from a 1 mM stock solution containing 20% DMSO. The assay was carried out by mixing 25 μL of CT-DNA and 25 μL of EtBr with 50 μL of each compound dilution, on a black 96-well plate. The plate was incubated at room temperature for 1 h and the fluorescence was measured on a Synergy 4 microplate reader (Biotek, Winooski), with excitation wavelength set to 500 nm, and emission wavelength set to 530–800 nm. The fluorescence emission at 590 nm was used to measure the C50, corresponding to the concentration of compound required to induce a 50% decrease in the fluorescence of the EtBr. Experiments were performed in triplicate.

SMILES	TON1h (NADH oxidation) ([1]; 470 nm blue light)	TON1h (NADH oxidation) ([1]; dark)	1O2 generation quantum yield (ϕΔ), DPBF [2]	IC50 (calf thymus DNA (CT-DNA))	Slope (S) of ‐ln(normalized Abs) vs time, photooxidation of DPBF ([2]; λir = 470 nm)	Slope (S) of ‐ln(normalized Abs) vs time, photooxidation of DPBF ([2]; λir = 530 nm)
Cc1c(C)c(C)[c-](C)c1C.[Cl][Ir]1[c]2cccc3c4nc5ccccc5nc4c4ccc[n+]1c4c23 [complex 1, [(η^5-C5Me5)IrCl(pbpz)]]	12.47	0.16	0.0780	192 µM	–	–
Cc1c(C)c(C)[c-](C)c1C.F[B-](F)(F)F.c1ccc2cc3nc4c5ccc[n+]6c5c5[c](cccc5c4nc3cc2c1)[Ir]6[n+]1cc[nH]c1 [complex 4, [(η^5-C5Me5)Ir(Im)(pbpn)]BF4]	9.71	0.31	0.9894	15.9 µM	0.0890	0.0058
Cc1c(C)c(C)[c-](C)c1C.F[B-](F)(F)F.c1ccc2nc3c4ccc[n+]5c4c4[c](cccc4c3nc2c1)[Ir]5[n+]1ccn(CCN2CCCCC2)c1 [complex 5, [(η^5-C5Me5)Ir(Imepip)(pbpz)]BF4]	2.36	0.37	0.026	54.6 µM	–	–
Cc1c(C)c(C)[c-](C)c1C.F[B-](F)(F)F.c1ccc2cc3nc4c5ccc[n+]6c5c5[c](cccc5c4nc3cc2c1)[Ir]6[n+]1ccn(CCN2CCCCC2)c1 [complex 6, [(η^5-C5Me5) Ir(Imepip)(pbpn)]BF4]	7.79	0.94	0.8118	32.8 µM	0.0657	0.0069
Cc1c(C)c(C)[c-](C)c1C.F[B-](F)(F)F.c1ccc(Cn2cc[n+]([Ir]3[c]4cccc5c6nc7ccccc7nc6c6ccc[n+]3c6c45)c2)cc1 [complex 7, [(η^5-C5Me5)Ir(bzIm)(pbpz)]BF4]	4.54	0.12	0.0204	95.4 µM	–	–
Cc1c(C)c(C)[c-](C)c1C.F[B-](F)(F)F.c1ccc(Cn2cc[n+]([Ir]3[c]4cccc5c6nc7cc8ccccc8cc7nc6c6ccc[n+]3c6c45)c2)cc1 [complex 8, [(η^5-C5Me5)Ir(bzIm)(pbpn)]BF4]	5.75	0.14	0.99	15.9 µM	0.0771	0.0061
